In brackets after ≈: the same amount, converted by molar mass. Like-named read-outs stand apart in the source and are kept apart here.
Tests used:
Bacillus subtilis = experiment: microbe, parasite or virus in culture; format: cell-based
C. elegans = experiment: motility assay; format: in vivo; design: key to Movement score, 1/1600 / Movement score, 1/800 / Movement score, 1/400 / Movement score, 1/200 / Movement score, 1/100: normal (−); slow (+); very slow (++); not motile/paralyzed (+++); conditions: Ive 1 ng/μL in all wells
Mycobacterium bovis BCG = experiment: microbe, parasite or virus in culture; format: cell-based; conditions: Mycobacterium tuberculosis variant bovis BCG
[1] = test system: Corynebacterium pseudodiphthericum; experiment: microbe, parasite or virus in culture; format: cell-based; conditions: Corynebacterium pseudodiphtheriticum
Bacillus megaterium = experiment: microbe, parasite or virus in culture; format: cell-based; conditions: Priestia megaterium
Escherichia coli = experiment: microbe, parasite or virus in culture; format: cell-based
Streptococcus agalactiae = experiment: microbe, parasite or virus in culture; format: cell-based
[2] = test system: Staphylococcus aureus MRSA MC-4; experiment: microbe, parasite or virus in culture; format: cell-based
M. smegmatis = experiment: MIC assay; format: cell-based; conditions: Mycolicibacterium smegmatis; Table 6; read-out: MIC M. smegmatis
Listeria monocytogenes = experiment: microbe, parasite or virus in culture; format: cell-based
[3] = test system: Gram-negative bacteria tested; experiment: organism not typed; format: cell-based; conditions: read-out: MICs
[4] = test system: Staphylococcus aureus ATCC 25923; experiment: microbe, parasite or virus in culture; format: cell-based; conditions: ATCC25923
[5] = test system: methicillin-resistant Staphylococcus aureus; experiment: microbe, parasite or virus in culture; format: cell-based
[6] = test system: Corynebacterium diphtheriae Tox−; experiment: microbe, parasite or virus in culture; format: cell-based
[7] = test system: Enterococcus faecium VRE 14; experiment: microbe, parasite or virus in culture; format: cell-based
[8] = test system: Gram-positive bacteria tested; experiment: organism not typed; format: cell-based
Mycobacterium chelonae = experiment: MIC assay; format: cell-based; conditions: Table 6; read-out: MIC M. chelonae
Streptococcus mitis = experiment: microbe, parasite or virus in culture; format: cell-based
[9] = test system: Enterococcus faecium VRE 1; experiment: microbe, parasite or virus in culture; format: cell-based
Corynebacterium xerosis = experiment: microbe, parasite or virus in culture; format: cell-based
C. elegans L1 larvae = experiment: developmental assay; format: in vivo; design: key to Developmental score, 1/1600 / Developmental score, 1/800 / Developmental score, 1/400 / Developmental score, 1/200 / Developmental score, 1/100: dead (+++); distressed (++); slightly delayed (+); the same as M9-only untreated wells (−); conditions: after four days, Ive 1 ng/μL in each well
[10] = test system: vancomycin-resistant enterococci; experiment: organism not typed; format: cell-based
Streptococcus pyogenes = experiment: microbe, parasite or virus in culture; format: cell-based
Pseudomonas aeruginosa = experiment: microbe, parasite or virus in culture; format: cell-based
[11] = test system: several strains of bacteria; experiment: Kirby-Bauer disc diffusion assay; format: cell-based; conditions: bioassay-directed fractionation
Description: The crude extract was then fractionated by flash column chromatography, using a 42 mm ID column, silica gel 60 as the stationary phase, and CH2Cl2 as the eluting solvent. Typically, 100-150, 10 mL fractions were collected and assayed for microbial growth inhibition. […] The column fractions, including the active component, were also analyzed by thin-layer chromatography (TLC) using Baker-flex® silica gel IB2-F plates (with fluorescent indicator) and CH2Cl2 as the eluting solvent (see FIG. 1).

[12] = test system: Staphylococcus aureus MRSA MC-1; experiment: microbe, parasite or virus in culture; format: cell-based; conditions: Staphylococcus aureus, MRSA
[13] = test system: Enterococcus faecalis ATCC 29212; experiment: microbe, parasite or virus in culture; format: cell-based; conditions: Enterococcus faecalis, ATCC29212
Bacillus cereus = experiment: microbe, parasite or virus in culture; format: cell-based
Mycobacterium fortuitum = experiment: MIC assay; format: cell-based; conditions: Mycolicibacterium fortuitum; Table 6; read-out: MIC M. fortuitum
[14] = test system: Streptococcus pneumoniae ATCC 49619; experiment: microbe, parasite or virus in culture; format: cell-based; conditions: ATCC49619
[15] = test system: Staphylococcus aureus ATCC 29213; experiment: microbe, parasite or virus in culture; format: cell-based; conditions: Staphylococcus aureus, ATCC29213
Bacillus anthracis = experiment: microbe, parasite or virus in culture; format: cell-based

In the case of COc1cc(O)cc(/C=C/c2ccccc2)c1 [CL-3, 3-hydroxy-5-methoxystilbene], the MIC (Bacillus subtilis) is reported as 16 µg/mL (≈ 70.7 µM), the “Movement score, 1/100” value (C. elegans; dilution 1/100 of stock (10.24 μg/μL; SK-03-92 1.024 μg/μL)) is reported as “+++” and the “Movement score, 1/200” value (C. elegans; dilution 1/200 of stock (10.24 μg/μL; SK-03-92 1.024 μg/μL)) is reported as “+++”. The “Movement score, 1/400” value (C. elegans; dilution 1/400 of stock (10.24 μg/μL; SK-03-92 1.024 μg/μL)) was “+”, the “Movement score, 1/800” value (C. elegans; dilution 1/800 of stock (10.24 μg/μL; SK-03-92 1.024 μg/μL)) was “−” and the “Movement score, 1/1600” value (C. elegans; dilution 1/1600 of stock (10.24 μg/μL; SK-03-92 1.024 μg/μL), overnight 20° C.) was “−”. The MIC (Mycobacterium bovis BCG; M bovis BCG, Example 3) was 25.6 µg/mL (≈ 113 µM), the MIC (Mycobacterium bovis BCG; Table 2, Mycobacterium bovis BCG) was 26 µg/mL (≈ 115 µM) and the MIC [1] was 16 µg/mL (≈ 70.7 µM). The MIC (Bacillus megaterium) was 64 µg/mL (≈ 283 µM), the MIC (Escherichia coli) was > 128 µg/mL and the MIC (Streptococcus agalactiae) was 32 µg/mL (≈ 141 µM). For the same compound, the MIC [2] was 32 µg/mL (≈ 141 µM), the MIC (M. smegmatis) was 64 µg/mL (≈ 283 µM) and the MIC (Listeria monocytogenes) was 32 µg/mL (≈ 141 µM). For the same compound, the MIC [3] was > 128 µg/mL, the MIC [4] was 32 µg/mL (≈ 141 µM) and the MIC [5] was 32 µg/mL (≈ 141 µM). For the same compound, the MIC [6] was 32 µg/mL (≈ 141 µM), the MIC [7] was 16 µg/mL (≈ 70.7 µM) and the “growth inhibition of Gram-positive bacteria” value [8] was “inhibit the growth of all Gram-positive bacteria tested”. For the same compound, the MIC (Mycobacterium chelonae) was 16 µg/mL (≈ 70.7 µM), the MIC (Streptococcus mitis) was 64 µg/mL (≈ 283 µM) and the MIC ([9]; Enterococcus faecium, VRE) was 16 µg/mL (≈ 70.7 µM). For the same compound, the MIC E. faecium VRE 1, G+ ([9]; Table 3) was 32 µg/mL (≈ 141 µM), the MIC (Corynebacterium xerosis) was 16 µg/mL (≈ 70.7 µM) and the “Developmental score, 1/100” value (C. elegans L1 larvae; dilution 1/100) was “+++”. The “Developmental score, 1/200” value (C. elegans L1 larvae; dilution 1/200) was “+”, the “Developmental score, 1/400” value (C. elegans L1 larvae; dilution 1/400) was “−” and the “Developmental score, 1/800” value (C. elegans L1 larvae; dilution 1/800) was “−”. For the same compound, the “Developmental score, 1/1600” value (C. elegans L1 larvae; dilution 1/1600) was “−”, the MIC [10] was 32 µg/mL (≈ 141 µM) and the MIC (Streptococcus pyogenes; Streptococcus pyogenes) was 16 µg/mL (≈ 70.7 µM). For the same compound, the MIC S. pyogenes, G+ (Streptococcus pyogenes; Table 3) was 16 µg/mL (≈ 70.7 µM), the MIC (Pseudomonas aeruginosa) was > 128 µg/mL and the growth inhibition [11] was “inhibited the growth”. It also gave an MIC [12] of 32 µg/mL (≈ 141 µM), an MIC ([12]; read-out: MIC S. aureus MC-1) of 16 µg/mL (≈ 70.7 µM) and an MIC [13] of 16 µg/mL (≈ 70.7 µM). For the same compound, the MIC (Bacillus cereus; Bacillus cereus) was 16 µg/mL (≈ 70.7 µM), the MIC B. cereus, G+ (anthrax surrogate) (Bacillus cereus; Table 3) was 16 µg/mL (≈ 70.7 µM) and the MIC (Mycobacterium fortuitum) was 16 µg/mL (≈ 70.7 µM). It also gave an MIC [14] of 8 µg/mL (≈ 35.4 µM), an MIC [15] of 32 µg/mL (≈ 141 µM) and an MIC ([15]; Table 6, read-out: MIC S. aureus ATCC 29213) of 16 µg/mL (≈ 70.7 µM). The MIC (Bacillus anthracis) was 4 µg/mL (≈ 17.7 µM).

Reference: US8530512B2, “Broad spectrum gram-positive antimicrobials and anthelmintics with efficacy against drug-resistant strains and Mycobacterium species” (priority 2004, dated 2013)
